Measurements from PMC12298624, “Anti-Infective Properties, Cytotoxicity, and In Silico ADME Parameters of Novel 4′-(Piperazin-1-yl)benzanilides” (Pharmaceuticals, 2025).
Where two headings read alike, the source gives them in different places. Values belong to the molecule of their own block, whether it stands above or below them.

Tests used:
[1] = system: P. falciparum NF54; design: method as in PMID 34832891, PMID 36558954; conditions: Figure 1, earlier studies; ref [12],[13]; read-out: PfNF54 IC50; cited from earlier work
[2] = system: HepG2 cells; experiment: Resazurin-based in vitro cytotoxicity with HepG2 cells; type: cell-based, human
Method in brief: (§1)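 HepG2 cells, 5000 per well in DMEM with 1% FBS, exposed 48 h at 37° C to ten 3-fold dilutions (100.0–0.005 µM). Then 50 µM resazurin for 3 h, fluorescence read at 555/570 nm, IC50 calculated; doxorubicin as control.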

[3] = system: L-6 cells; experiment: Resazurin-based in vitro cytotoxicity with L-6 cells; type: cell-based, rat
Method in brief: (§2)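 Compounds tested in eleven 3-fold serial dilutions from 100 to 0.002 µg/mL over 70 h incubation. IC50 obtained by linear regression from sigmoidal dose–inhibition curves.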

[4] = system: P. falciparum NF54; experiment: In vitro microplate assay against P. falciparum NF54 (3H-hypoxanthine incorporation); type: cell-based, Plasmodium falciparum; conditions: read-out: P.f.NF54 IC50
Method in brief: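 Parasites exposed to eleven 3-fold drug dilutions spanning 100 to 0.002 µg/mL for 48 h, then ^3H-hypoxanthine (0.5 µCi/well) added for a further 24 h. Incorporated radioactivity counted by liquid scintillation after harvesting onto glass fiber filters. IC50 from sigmoidal inhibition curves by linear regression.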

[5] = system: A. baumannii ATCC 19606; experiment: MIC/MBC microbroth dilution (EUCAST); type: cell-based, Acinetobacter baumannii; conditions: Acinetobacter baumannii
Procedure: (§3) Minimum inhibitory concentrations (MIC values) were obtained using the microbroth dilution method as stated in the EUCAST guidelines. Tests were conducted on cation adjusted Mueller–Hinton broth (caMHB) or agar (caMHA). These were prepared and stored following the manufacturer’s guidelines. Biological organisms were prepared via growth on either Luria–Bertani (LB) or cation adjusted Mueller–Hinton agar plates. These were grown for 24 h at 37 °C, except for Micrococcus luteus where MICs took longer to grow and as a consequence were read after 48 h once a clear positive control could be observed. For the MIC experiment, the bacteria were prepared using the McFarland 0.5 standard and diluted 1 in 100 or 1 in 10 in caMHB following EUCAST and CSLI guidelines for the preparation of bacteria. Testing of the compounds using the microbroth dilution method took place in 96-well plates. Serial 2-fold dilutions of compounds in caMHB covering a range from 256 µg/mL to 0.25 µg/mL were prepared. Bacteria preparations (McFarland) were added to the compound dilutions, further halving the compound concentrations. The plate was then incubated for 18 h at 37 °C. Controls for the MIC experiments included a bacterial growth (positive) control of bacteria and caMHB only and a media only (negative) control. After incubation, the plates were read, whereby the positive control of bacteria was visible and the negative control was clear of contamination. The last clear well, where there is no growth of bacteria, was counted as the MIC value. […] The lowest concentration without any bacterial growth was counted as the MBC value. The following pathogens were used: Pseudomonas aeruginosa NCTC 13437, Escherichia coli NCTC 13353, Bacillus subtilis 168a, Serratia marcescens NCTC 9940, Micrococcus luteus ATCC 10240, Staphylococcus aureus JE2 USA 300, Acinetobacter baumannii ATCC 19606, and Klebsiella pneumoniae ATCC 700603. A concentration range of 256 µg/mL to 0.25 µg/mL of a combination of ciprofloxacin and meropenem against E. coli 25922 was used as an antibiotic control to ensure correct dilution and performance of the assay.

[6] = Resazurin-based in vitro cytotoxicity with HepG2 cells; type: cell-based, human; conditions: HepG2 cells; human hepatocarcinoma cells, 48 h
Method in brief: as §1

[7] = system: M. luteus ATCC 10240; experiment: MIC/MBC microbroth dilution (EUCAST); type: cell-based, Micrococcus luteus; conditions: Micrococcus luteus, ATCC10240, M. luteus ATCC 10240
Procedure: as §3

[8] = system: E. coli NCTC 13353; experiment: MIC/MBC microbroth dilution (EUCAST); type: cell-based, Escherichia coli; conditions: Escherichia coli
Procedure: as §3

[9] = system: S. marcescens NCTC 9940; experiment: MIC/MBC microbroth dilution (EUCAST); type: cell-based; conditions: Serratia marcescens, NCTC9940
Procedure: as §3

[10] = system: S. aureus JE2 USA 300; experiment: MIC/MBC microbroth dilution (EUCAST); type: cell-based; conditions: Staphylococcus aureus, USA300, S. aureus JE2 USA 300
Procedure: as §3

[11] = system: K. pneumoniae ATCC 700603; experiment: MIC/MBC microbroth dilution (EUCAST); type: cell-based; conditions: Klebsiella pneumoniae, ATCC700603
Procedure: as §3

[12] = system: P. aeruginosa NCTC 13437; experiment: MIC/MBC microbroth dilution (EUCAST); type: cell-based; conditions: Pseudomonas aeruginosa, NCTC13437
Procedure: as §3

[13] = system: B. subtilis 168a; experiment: MIC/MBC microbroth dilution (EUCAST); type: cell-based, Bacillus subtilis; conditions: Bacillus subtilis, 168A
Procedure: as §3

[14] = Parallel artificial membrane permeability assay (PAMPA); conditions: PAMPA, pH 7.4, Pe, PBS pH 7.4, 200 µM, 5 h, room temperature
Method in brief: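 Passive permeability was measured across a lipid–oil–lipid triple-layer membrane with 200 µM final compound in PBS pH 7.4 in the donor, PBS in the acceptor, 5 h at room temperature, quadruplicates. Donor and acceptor concentrations were read by UV absorbance (200–300 nm); data accepted only when recovery exceeded 70%.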

[15] = Resazurin-based in vitro cytotoxicity with L-6 cells; type: cell-based, rat; conditions: rat
Method in brief: as §2

Molecule: CC(C)(C)OC(=O)N1CCN(c2ccc(NC(=O)c3cccc(C(F)(F)F)c3Oc3ccc(F)cc3)cc2)CC1 [derivate I]
IC50 [1]: 0.27 µM

Molecule: CC(C)(C)OC(=O)N1CCN(c2ccc(NC(=O)c3cccc(C(F)(F)F)c3Sc3ccc(F)cc3)cc2)CC1 [derivate III]
IC50 [1]: 0.15 µM

Molecule: CC(C)(C)OC(=O)N1CCN(c2ccccc2NC(=O)c2cccc(C(F)(F)F)c2Oc2ccc(F)cc2)CC1 [MMV030666, tert-Butyl-4-{2-[2-(4-fluorophenoxy)-3-(trifluoromethyl)benzamido]phenyl}pipera-zine-1-carboxylate]
IC50 [1]: 0.41 µM

Molecule: CC(C)(C)OC(=O)N1CCN(c2ccc(NC(=O)c3cccc(C(F)(F)F)c3Nc3ccc(F)cc3)cc2)CC1 [derivate IV]
IC50 [1]: 0.54 µM

Molecule: 2-(4-Fluorophenoxy)-N-[4-(pyrrolidin-4-yl)phenyl]-3-(trifluoromethyl)benzamide [Compound 34]
IC50 [2]: 39.8 µM | IC50 [3]: 185 µM | IC50 ([4]; chloroquine-sensitive strain NF54, erythrocytic stages): 1.68 µM

Molecule: CC(C)(C)C(=O)N1CCN(c2ccc(NC(=O)c3cccc(C(F)(F)F)c3Oc3ccc(F)cc3)cc2)CC1 [derivate II]
IC50 [1]: 0.58 µM

MIC ([5]; ATCC19606, read-out: MIC): > 256 mg/L | MIC ([7]; read-out: MIC): > 256 mg/L | MIC ([8]; NCTC13353, read-out: MIC): > 256 mg/L | MIC [9]: > 256 mg/L | MIC [10]: 256 mg/L | MIC [11]: > 256 mg/L | MIC [12]: > 256 mg/L | MIC ([13]; read-out: MIC): > 256 mg/L | Papp at 5 h, 200 µM [14]: 57.6 nm/s | IC50 ([4]; Plasmodium falciparum, NF54, chloroquine-sensitive strain NF54, erythrocytic stages): 7 µM
Molecule: Nc1cccc(C(=O)Nc2ccc(N3CCNCC3)cc2)c1Oc1ccc(F)cc1 [Compound 65, 3-Amino-2-(4-fluorophenoxy)-N-[4-(piperazin-1-yl)phenyl]benzamide]
MBC ([5]; ATCC19606): > 256 mg/L | IC50 at 48 h [6]: > 100 µM | MBC ([7]; read-out: MBC): > 256 mg/L | MBC ([8]; NCTC13353): > 256 mg/L | MBC [9]: > 256 mg/L | MBC [10]: 256 mg/L | MBC [11]: > 256 mg/L | MBC [12]: > 256 mg/L | MBC [13]: > 256 mg/L | IC50 at 70 h [15]: 157 µM
